Entries after “also recorded” stand apart in the source; their conditions may differ.
Key:
[1] = Plasma protein binding by equilibrium dialysis, human plasma; assay type: in vitro ADME; conditions: human plasma; for % Unbound: 360 min, 5 µM
Description: Plasma Protein Binding by Equilibrium Dialysis (Independently Performed by Pharmaron Inc., Ninqbo, CN)
Initially, 1 mM solutions of test compounds and the control compound (Ketoconzaole) were prepared in DMSO. After this, dialysis membranes were soaked in ultrapure water for 60 min to separate strips, followed by 20% aq. ethanol for 20 min, and finally in a dialysis buffer for 20 min. […] After this, 597 μL of blank plasma solution followed by 3 μL of the working solutions of either test compounds or control compound were added to a new plastic plate or separate plastic tube and the solutions were vortexed at 1,000 rpm for 2 min. Immediately after this, 50 μL of spiked plasma solution suspension was transferred to a 96-well plate to act as T=0 control. The remaining samples were treated in the same manner, whereby all remaining spiked plasma solutions were added to the incubator for the duration of the study.
Cells were then loaded with 120 μL of the plasma samples and dialyzed against an equal volume of dialysis buffer (PBS). […] At the end of incubation, the lid was removed and 50 μL of post-dialysis samples were removed from both buffer and plasma solution chambers into a separate 96-well plate for analysis. The plasma solutions (50 μL) were then added to the buffer samples along with an equal volume of PBS (50 μL) to the collected plasma solution samples. The plate was shaken at 1,000 rpm for 2 min and 400 μL of acetonitrile containing an appropriate internal standard was added to precipitate protein and release compound. The samples were then vortexed at 1,000 rpm for an additional 10 min followed by centrifugation at 3,220 g for 30 min. Supernatant (250 μL) was then added to a new 96-well plate and centrifuged again at 3,220 g for 30 min and 100 μL of this supernatant was then added to a new 96-well plate for analysis. The samples were analyzed by LC-MS/MS and 100 μL of distilled water was added to each sample prior to analysis.
Concentrations of test compounds and control compound in buffer and plasma solution chambers was determined and percentages of test compounds and control compound bound using the following equations (mean of n=2 replicates): […]

hERG channel = hERG channel (Homo sapiens, UniProt Q12809); set-up: expressed in transfected cells; host or cells: HEK 293; conditions: cited from earlier work
hERG channel, sequence (Q12809 whole entry): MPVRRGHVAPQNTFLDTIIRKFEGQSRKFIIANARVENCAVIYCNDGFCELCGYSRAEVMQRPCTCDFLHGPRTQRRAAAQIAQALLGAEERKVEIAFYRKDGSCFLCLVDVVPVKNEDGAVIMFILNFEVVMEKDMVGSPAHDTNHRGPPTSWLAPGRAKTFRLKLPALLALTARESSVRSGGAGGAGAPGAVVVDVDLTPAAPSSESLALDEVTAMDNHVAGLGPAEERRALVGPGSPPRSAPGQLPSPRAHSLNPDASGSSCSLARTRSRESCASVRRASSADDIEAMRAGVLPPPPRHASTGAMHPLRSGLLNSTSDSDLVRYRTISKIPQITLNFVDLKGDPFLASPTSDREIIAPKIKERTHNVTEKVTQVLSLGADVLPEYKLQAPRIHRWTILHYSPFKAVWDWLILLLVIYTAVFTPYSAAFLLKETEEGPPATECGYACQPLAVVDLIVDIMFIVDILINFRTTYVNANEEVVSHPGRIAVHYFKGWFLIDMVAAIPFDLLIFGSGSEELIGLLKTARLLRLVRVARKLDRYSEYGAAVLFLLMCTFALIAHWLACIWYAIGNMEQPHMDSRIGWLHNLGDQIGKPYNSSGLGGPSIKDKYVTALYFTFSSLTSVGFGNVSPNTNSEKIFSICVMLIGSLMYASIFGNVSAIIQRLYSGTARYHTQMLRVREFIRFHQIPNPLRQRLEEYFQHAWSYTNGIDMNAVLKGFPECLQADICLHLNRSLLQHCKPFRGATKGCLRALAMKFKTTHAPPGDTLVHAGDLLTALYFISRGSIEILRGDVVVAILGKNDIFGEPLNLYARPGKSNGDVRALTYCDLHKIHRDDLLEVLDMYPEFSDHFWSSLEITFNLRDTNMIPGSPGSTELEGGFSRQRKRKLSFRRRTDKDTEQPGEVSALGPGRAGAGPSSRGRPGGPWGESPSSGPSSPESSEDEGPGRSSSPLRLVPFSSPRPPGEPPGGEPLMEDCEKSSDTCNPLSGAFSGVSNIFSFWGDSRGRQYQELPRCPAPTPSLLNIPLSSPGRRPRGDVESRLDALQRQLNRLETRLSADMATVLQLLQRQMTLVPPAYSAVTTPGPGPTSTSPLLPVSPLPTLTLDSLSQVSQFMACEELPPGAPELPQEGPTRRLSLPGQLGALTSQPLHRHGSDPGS

cSRC = cSRC (Homo sapiens, UniProt P12931); test: KinaseProfiler radiometric kinase assay, cSRC wt; assay type: biochemical; conditions: for IC50: [ATP] = 10 μM, mean of n = 2
cSRC, sequence (P12931 whole entry): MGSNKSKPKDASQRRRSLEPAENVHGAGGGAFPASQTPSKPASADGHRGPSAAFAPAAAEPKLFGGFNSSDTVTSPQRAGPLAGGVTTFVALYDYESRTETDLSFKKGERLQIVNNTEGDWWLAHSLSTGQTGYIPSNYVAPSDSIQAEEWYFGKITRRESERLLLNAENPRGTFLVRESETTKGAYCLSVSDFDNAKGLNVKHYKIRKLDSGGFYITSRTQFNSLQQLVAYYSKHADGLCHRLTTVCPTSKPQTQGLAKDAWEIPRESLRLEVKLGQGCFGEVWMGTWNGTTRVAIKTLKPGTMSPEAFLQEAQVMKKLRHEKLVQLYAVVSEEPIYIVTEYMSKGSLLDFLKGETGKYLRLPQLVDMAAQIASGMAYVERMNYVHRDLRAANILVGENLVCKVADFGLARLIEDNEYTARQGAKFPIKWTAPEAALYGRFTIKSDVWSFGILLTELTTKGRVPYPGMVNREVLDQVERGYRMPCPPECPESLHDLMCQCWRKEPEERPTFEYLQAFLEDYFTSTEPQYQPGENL

mutant BCR-ABL1 = test: KinaseProfiler radiometric kinase assay, mutant BCR-ABL1 kinases as a group; assay type: biochemical, human
Description: Biochemical Human RTK Kinase Enzymatic Radiometric Assay, KinaseProfiler (Independently Performed by Eurofins Cerep SA, FR)

[2] = test system: P-glycoprotein (P-gp) and/or breast cancer resistance protein (BCRP); conditions: cited from earlier work
Caco-2 cells = test: Caco-2 permeability; conditions: Papp (b − a/a − b)
Description: Caco-2 Permeability (Independently Performed by Pharmaron Inc., Ningbo, CN)
To each well of the Transwell insert and reservoir were added 50 μL and 25 mL of cell culture medium, respectively. […] Following this, the Caco-2 plate was removed from the incubator and the monolayer washed twice with pre-warmed HBSS (10 mM HEPES, pH 7.4).
To determine the rate of drug transport in the apical to basolateral direction, 125 μL of the working solution of either test compounds or control compounds was added to the Transwell insert (apical compartment) and a 50 μL sample was immediately transported from the apical compartment to 200 μL of acetonitrile containing internal standard (100 nM alprazolam, 200 nM Caffeine and 100 nM tolbutamide) in a new 96-well plate as the initial donor sample (A-B). The sample was then vortexed at 1,000 rpm for 10 min. The receiver plate (basolateral compartment) wells were then filled with 235 μL of transport buffer. To determine the rate of drug transport in the basolateral to apical direction, 285 μL of the working solution of either test compounds or control compounds was added to the receiver plate wells (basolateral compartment) and a 50 μL sample was immediately transferred from the basolateral compartment to 200 μL of acetonitrile containing internal standard in a new 96-well plate as the initial donor sample (B-A). The sample was vortexed at 1,000 rpm for 10 min. The Transwell insert (apical compartment) was then filled with 75 μL of transport buffer and the apical to basolateral direction and the basolateral to apical direction were done at the same time. […] After incubation, 50 μL samples from donor sides (apical compartment for Ap→BI flux, and basolateral compartment for BI→Ap) and receiver sides (basolateral compartment for Ap→BI flux, and apical compartment for BI→Ap) were transferred to wells of a new 96-well plate, followed by the addition of 200 μL acetonitrile containing internal standard. All samples were vortexed for 10 min and then centrifuged at 3,220 g for 40 min. A 150 μL aliquot of the supernatant was then mixed with an appropriate volume of ultra-pure water prior to LC-MS/MS analysis.
(§1) To monitor for monolayer integrity, Lucifer yellow leakage was determined after the 2 h transport period. This began by preparing a stock solution of Lucifer yellow in DMSO which was diluted with HBSS (10 mM HEPES, pH 7.4.) to reach a final concentration of 100 μM. To each Transwell insert (apical compartment) was then added 100 μL of the Lucifer yellow solution, followed by filling the wells in the receiver plate (basolateral compartment) with 300 μL of HBSS (10 mM HEPES, pH 7.4).
(§2) The efflux ratio was determined using the following equation: […]

BCR-ABL1 M351T = target: T1, BCR-ABL1 M351T (Homo sapiens, UniProt P00519, M351T); test: KinaseProfiler radiometric kinase assay, BCR-ABL1 M351T; assay type: biochemical; conditions: [ATP] = 10 μM; mean of n = 2
T1 construct: BCR (fusion partner, as the printed name BCR-ABL1 says)

BCR-ABL1 Q252H = target: T2, BCR-ABL1 Q252H (Homo sapiens, UniProt P00519, Q252H); test: KinaseProfiler radiometric kinase assay, BCR-ABL1 Q252H; assay type: biochemical; conditions: [ATP] = 10 μM; mean of n = 2
T2 construct: BCR (fusion partner, as the printed name BCR-ABL1 says)

[3] = Metabolic stability in human hepatocytes; conditions: for remaining at 0.5 min / remaining at 0.5 h / remaining at 1 h / remaining at 2 h: hepatocytes
Description: Metabolic Stability in Hepatocytes (Independently Performed by Pharmaron Inc., Ninqbo, CN)
After thawing was complete, hepatocytes were transferred into a 50 mL conical tube containing thawing medium and the tube was then placed into a centrifuge and spun at 100 g for 10 min. […] Using AO/PI staining, cells were counted to determine the viable cell density. […] Subsequently, 2 μL of the 100 μM test compounds or control compound solutions was transferred into the respective wells of the 96-well non-coated plate to start the reaction. […] Aliquots of 100 μL of the supernatant were then diluted by 100 μL of ultra-pure water, and the mixture was analyzed by LC-MS/MS.
All calculations were carried out using Microsoft Excel. Peak areas were determined from extracted ion chromatograms. The in-vitro half-life (t1/2) of parent compound was determined by regression of the percent parent disappearance vs. time curve.

[4] = Metabolic stability in mouse hepatocytes; assay type: in vitro ADME; conditions: read-out: Remaining Percentages
Description: All calculations were carried out using Microsoft Excel. Peak areas were determined from extracted ion chromatograms.

MDCKII-MDR1 cells = test: MDCKII-MDR1 permeability; conditions: MDCKII-MDR1
Description: MDCKII-MDR1 Permeability (Independently Performed By: Pharmaron Inc., Ninqbo, CN)
To each well of the Transwell insert and reservoir were added 50 μL and 25 mL of cell culture medium, respectively.
To determine the rate of drug transport in the apical to basolateral direction, 125 μL of the working solution of either test compounds or control compounds was added to the Transwell insert (apical compartment) and a 50 μL sample was immediately transferred from the apical compartment to 200 μL of acetonitrile containing internal standard (100 nM alprazolam, 200 nM caffeine, and 100 nM tolbutamide) in a new 96-well plate as the initial donor sample (A-B). The sample was then vortexed at 1,000 rpm for 10 min. The receiver plate (basolateral compartment) wells were then filled with 235 μL transport buffer. To determine the rate of drug transport in the basolateral to apical direction, 285 μL of the working solution of either test compounds or control compounds was added to the receiver plate (basolateral compartment) wells and a 50 μL of sample was immediately transferred from the basolateral compartment to 200 μL of acetonitrile containing internal standard in a new 96-well plate as the initial donor sample (B-A). The sample was vortexed for 10 min at 1,000 rpm. The Transwell insert (apical compartment) was then filled with 75 μL of transport buffer and the apical to basolateral direction and the basolateral to apical direction were done at the same time. […] After incubation, 50 μL samples from donor sides (apical compartment for Ap→BI flux, and basolateral compartment BI→Ap) and receiver sides (basolateral compartment for Ap→BI flux, and apical compartment for BI→Ap) were transferred to wells of a new 96-well plate, followed by the addition of 200 μL acetonitrile containing internal standard. […] An aliquot of 100 μL of the supernatant was mixed with an appropriate volume of ultra-pure water before LC-MS/MS analysis.
as §1, with “and” for “which was”
as §2

SMILES: CC(=O)N1CCN(c2ccc(OCC3COC(Cn4ccnc4)(c4ccc(Cl)cc4Cl)O3)cc2)CC1 (stereo not shown) [Ketoconazole]
- % Unbound [1]: 0.80%
- fraction unbound at 6 h, 5 µM ([1]; read-out: % Bound (converted)): 0.008

SMILES: Cc1cn(-c2cc(NC(=O)c3ccc(C)c(Nc4nccc(-c5cccnc5)n4)c3)cc(C(F)(F)F)c2)cn1 [Nilotinib, nilotinib]
- hERG liability, in words (background) (hERG channel): inhibition of the human Ether-b-go-go-Related Gene (hERG) potassium ion channel

SMILES: COc1cc2c(Nc3ccc(Cl)c(OC)n3)c(C#N)cnc2cc1OCCON1CCN(C)CC1 [Compound 21, 4-((5-Chloro-6-methoxypyridin-2-yl)amino)-6-methoxy-7-(2-((4-methylpiperazin-1-yl)oxy)ethoxy)quinoline-3-carbonitrile]
- cSRC kinase activity, in words (cSRC): excellent activity
- BCR-ABL1 kinase activity, in words (mutant BCR-ABL1): excellent activity

SMILES: O=C(Nc1ccc(OC(F)(F)Cl)cc1)c1cnc(N2CC[C@@H](O)C2)c(-c2ccn[nH]2)c1 [Asciminib, asciminib]
- efflux transporter substrate (background) [2]: P-gp substrates; also recorded: potent substrates for efflux transporters

SMILES: COc1cc2c(Nc3cccc(OC)c3F)c(C#N)cnc2cc1OCCON1CCN(C)CC1 [Compound 18, 4-((2-Fluoro-3-methoxyphenyl)amino)-6-methoxy-7-(2-((4-methylpiperazin-1-yl)oxy)ethoxy)quinoline-3-carbonitrile]
- Efflux Ratio (Caco-2 cells): 12.36
- % Unbound [1]: 12.97%
- IC50 (cSRC): 34 nM
- IC50 (BCR-ABL1 M351T): 24 nM
- IC50 (mutant BCR-ABL1; read-out: IC50 against (imatinib resistant / relevant) mutant BCR-ABL1 kinases, group of mutants): ≥ 15 nM
- IC50 (BCR-ABL1 Q252H): 30 nM
- remaining at 0.5 min [3]: 100%
- remaining at 0.5 h [3]: 95.7%
- remaining at 1 h [3]: 80.4%
- remaining at 2 h [3]: 54.9%

SMILES: COc1ccc(CCN(C)CCCC(C#N)(c2ccc(OC)c(OC)c2)C(C)C)cc1OC (stereo not shown) [Verapamil, reference compound]
- remaining at […] ([4]; 15 min): 16.7%
- remaining at 0.5 h ([4]; 30 min): 4.39%
- remaining at 1 h ([4]; 60 min): 1.24%
- remaining at 0.5 h [3]: 35.6%
- remaining at 1 h [3]: 17.7%
- remaining at 2 h [3]: 4.83%

SMILES: COc1cc2c(Nc3cccc(Cl)c3F)c(C#N)cnc2cc1OCCON1CCN(C)CC1 [Compound 16, 4-((3-Chloro-2-flurophenyl)amino)-6-methoxy-7-(2-((4-methylpiperazin-1-yl)oxy)ethoxy)quinoline-3-carbonitrile]
- remaining at 0.5 min [3]: 100%
- remaining at 0.5 h [3]: 66.9%
- remaining at 1 h [3]: 45.1%
- remaining at 2 h [3]: 18.6%

SMILES: COc1cc(Nc2c(C#N)cnc3cc(OCCON4CCN(C)CC4)c(OC)cc23)ccc1Cl [Compound 19]
- IC50 (cSRC): 2 nM
- IC50 (BCR-ABL1 M351T): 1 nM
- efflux (P-gp), in words (MDCKII-MDR1 cells): reduced efflux ratios
- permeability in MDCKII-MDR1 cells, in words (MDCKII-MDR1 cells): markedly improved permeability
- stability in hepatocytes, in words [3]: good stability in human hepatocytes
- remaining at 0.5 min [3]: 100%
- remaining at 0.5 h [3]: 68.1%
- remaining at 1 h [3]: 50.2%
- remaining at 2 h [3]: 25.5%

SMILES: Cc1nc(Nc2ncc(C(=O)Nc3c(C)cccc3Cl)s2)cc(N2CCN(CCO)CC2)n1 [Dasatinib, dasatinib]
- efflux transporter substrate (background) [2]: P-gp substrates; also recorded: potent substrates for efflux transporters
- hERG liability, in words (background) (hERG channel): reduced affinity for the hERG ion channel

Reference: patent US20260297031A1, “HYDROXYLAMINE-BASED BCR-ABL1 INHIBITORS FOR TREATMENT OF CANCER” (University of Georgia Research Foundation, Inc., priority 2023, published 2026)
